Laboratory results published in patent EP1222242B1, “CLEANING AGENTS WHICH CONTAIN SURFACTANTS AND ENZYME INHIBITORS” (Henkel Kommanditgesellschaft auf Aktien, priority 1999, dated 2001).
Entries after “also recorded” stand apart in the source; their conditions may differ. Where a SMILES comes first, the peptide text is derived from it. The star is where a group is joined. Cbz = O=C(OCc1ccccc1)*

How the values were obtained:
Trypsin = molecular target: T1, Trypsin (Bos taurus, UniProt P00760); assay: Trypsin enzyme activity test (BAPNA substrate, absorbance at 405 nm); type: biochemical, Rind; details: for Hemmung von Trypsin: result in words over the tested concentration range
T1 construct: aus der vom Pankreas gebildeten Vorstufe Trypsinogen durch Abspaltung eines Hexapeptids entsteht; purchased Sigma; host or cells: bovine pancreas (Rinderpankreas)
T1 sequence (P00760 24-246): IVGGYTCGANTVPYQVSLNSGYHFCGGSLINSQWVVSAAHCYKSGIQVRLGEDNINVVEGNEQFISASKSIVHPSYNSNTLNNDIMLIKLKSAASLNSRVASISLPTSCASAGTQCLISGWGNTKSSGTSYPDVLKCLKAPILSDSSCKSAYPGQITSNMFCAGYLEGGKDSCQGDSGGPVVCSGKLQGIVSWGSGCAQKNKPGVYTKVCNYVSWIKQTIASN
Excerpt: (§1) Da die hauteigenen, am Desmosomenabbau beteiligten Proteasen nicht in ausreichender Menge zur Verfügung standen, dienten die Serin-Proteasen Trypsin und Chymotrypsin (Sigma) aus Rinderpankreas als Modellenzym, um die Hemmwirkung des erfindungsgemäß verwendeten Inhibitors N-CBZ-Gly-Pro-Phe-Pro-Leu, zu testen. Als Vergleich wurde auch das als t-PA-Inhibitor (tissue-type plasminogen activator) bekannte t-AMCHA [trans-4(Aminomethyl)-cyclohexancarbonsäure] getestet.
Auch der Nachweis der Trypsin-Enzymaktivität erfolgt mit einer Modifikation analog zu den Angaben im Sigma Quality Control Test Procedure-Datenblatt für Trypsin. Anstelle von Aprotinin (Reagens F) wurden hier die erfindungsgemäßen Inhibitoren eingesetzt. Hierfür wurde eine Konzentrationsreihe der Inhibitoren in Reagens E angesetzt. Die Enzymaktivität wurde durch Umsetzung des Substrates Nα-Benzoyl-DL-Arginin-p-Nitroanilin (BAPNA) zu Nα-Benzoyl-DL-Arginin und p-Nitroanilin spektrophotometrisch bestimmt. Die Absorption des proteolytisch abgespaltenen p-Nitroanilins wird bei 405 nm gemessen.
(§2) Die Reaktionskinetiken wurden je 5 Minuten bei 25 °C detektiert, wobei der lineare Anstieg der Absorption (A) pro Zeiteinheit (t) ein Maß für die Aktivität des Enzyms (ΔA/Δt) ist. Die Aktivität des Enzyms in Abwesenheit eines Proteinase-Inhibitors, (ΔA1/Δt1 ), wurde auf 100% gesetzt. Unter analogen Bedingungen wurden die Aktivitäten in Gegenwart eines Inhibitors (ΔA2/Δt2) bestimmt. Die Hemmwirkung oder Minderung der Enzymaktivität entspricht dann: 100% - (ΔA2/Δt2 )/( ΔA1/Δt1)%.

Chymotrypsin = molecular target: T2, Chymotrypsin (Bos taurus, UniProt P00766); assay: Chymotrypsin enzyme activity test (BTEE substrate, absorbance at 256 nm); type: biochemical, Rind; details: for Hemmung von Chymotrypsin: result in words over the tested concentration range
T2 construct: Chymotrypsin entsteht im Pankreas aus inaktiven Vorstufen, sogenannten Zymogenen, durch Einwirkung von Trypsin; purchased Sigma; host or cells: bovine pancreas (Rinderpankreas)
Excerpt: as §1
Der Nachweis der Chymotrypsin-Enzymaktivität erfolgt mit einer Modifikation analog zu den Angaben im Sigma Quality Control Test Procedure-Datenblatt für Chymotrypsin. Bei Ansätzen ohne Inhibitor wurden 1,42 mL Reagens A (80 mM Tris/HCl-Puffer, pH = 7,8; 25°C) zum Testansatz zugegeben. Bei Ansätzen mit Inhibitor wurden 1,32 mL Reagens A zum Testansatz zugegeben sowie 0,1 mL einer Lösung des entsprechenden Inhibitors in Reagens A (Konzentrationsreihe). Die Enzymaktivität wurde durch Umsetzung des Substrates N-Benzoyl-L-Tyrosinethylester (BTEE) zu N-Benzoyl-L-Tyrosin und Ethanol spektrophotometrisch bestimmt. Die Absorption des proteolytisch abgespaltenen N-Benzoyl-L-Tyrosins wird bei 256 nm gemessen.
as §2

[1] = system: Desquamation des Stratum corneum; assay: Desquamation test on human skin biopsies (detergent-induced corneocyte shedding, corneocyte count); type: cell-based; details: for Desquamation der Humanhaut (Korneozyten-Abschuppung): result in words over the tested concentration range
Excerpt: Aus frischen Humanhautexplantaten (aus Mammareduktion) wurden 8mm^2-große Hautstücke ausgestanzt und mit einer Mischung aus Detergentien (Na-Dodecylsulfat, N,N-Dimethyldodecylaminoxid) in Abwesenheit und in Gegenwart der Inhibitoren behandelt. Unter dem Einfluß der Detergentien wird eine verstärkte Abschuppung (Desquamation) der Homschicht (Stratum corneum) künstlich induziert, also die Ausbildung trockener Haut im Versuch nachgeahmt. Die Anzahl abgeschuppter Hornzellen (Korneozyten) wurde unter dem Mikroskop in einer Schilling-Zählkammer bestimmt. Eine Verringerung der Korneozytenzahl weist auf eine hemmende Wirkung der getesteten potentiellen Inhibitoren hin.
Die Inhibitoren wurden in den entsprechenden Konzentrationen (vgl. Tabellen der Beispiele 7-12) im Inkubationspuffer angesetzt. Dieser bestand aus 0,1 M TRIS-HCl-Puffer (pH 8) mit 0,1 Gew.% Na-Azid und den Detergenzien Na-Dodecylsulfat (0,2 mM) und N,N-Dimethyldodecylaminoxid (8 mM) sowie EDTA (5 mM). Diese Inkubationspufferlösungen mit variierender Konzentration des Inhibitors werden nachfolgend als Testlösungen bezeichnet.
Es wurden zwei Arten von Blindkontrollen durchgeführt, eine Positiv- und eine Negativkontrolle. Für die sogenannte Positivkontrolle wurde nur der Inkubationspuffer verwendet, d. h. ohne Zusatz der Inhibitoren. Für die sogenannte Negativkontrolle wurde eine 5 mM Lösung von EDTA in TRIS-HCl-Puffer eingesetzt, d. h. ohne Zusatz der Detergentien.
Pro Reaktionsansatz wurden 0,5 mL der jeweiligen Testlösung oder des für die Blindkontrollen verwendeten Puffergemisches in verschließbaren Reaktionsgefäßen vorgelegt. Alle Ansätze wurden in vierfacher Ausfertigung durchgeführt, um die Reproduzierbarkeit der Ergebnisse zu gewährleisten.
Die Humanhaut wurde nach der Explantation in einer trockenen, sterilen Petrischale auf Kühlakkus transportiert. Nach Entfernung des Unterhautfett- und des Bindegewebes wurden mit Hilfe von sterilen Stanzen 8 mm^2-große Hautstücke präpariert. Diese wurden 15-20 min in steriler, physiologischer NaCl (0,9 %) gewaschen, zu den Reaktionsansätzen gegeben (1 Hautstück/Reaktionsansatz) und 44 Stunden bei 37° C inkubiert.
Nach Beendigung der Inkubationsphase wurden die Reaktionsgefäße 30 Sekunden auf einem Vortex-Mixer geschüttelt, um noch lose anhaftende Komeozyten von den Hautstücken abzulösen. Die Hautstücke wurden entnommen und die verbleibende Dispersion wurde 8 Minuten bei 11.000U/min zentrifugiert, um die Korneozyten zu isolieren. Der detergenshaltige Überstand (0,4 mL) wurde verworfen und der Rückstand mit 0,4 ml Aqua dest. gewaschen. Nach nochmaligem Zentrifugieren wurde der Überstand (0.4 mL) wiederum verworfen, das verbleibende Zellpellet in 0,4 mL Aqua dest. aufgenommen und die abgelösten Korneozyten in einer Schillingzählkammer unter einem Lichtmikroskop ausgezählt.
Nachfolgende Tabellen geben eine Zusammenstellung über die Anzahl abgelöster Korneozyten: • nach Behandlung der Haut-Biopsien mit einem Detergentiengemisch in Abwesenheit der Inhibitoren (Positivkontrolle) • nach Behandlung der Haut-Biopsien mit einer Pufferlösung in Abwesenheit der Detergentien und Inhibitoren (Negativkontrolle) • nach Behandlung der Haut-Biopsien mit einem Detergentiengemisch, welches die Inhibitoren in variierender Konzentration enthält.

[2] = inhibitor concentration 0,03 % (w/v), 25 °C
[3] = inhibitor 0,1 % (w/v), corneocyte count, positive control = 100 %, 44 h, 37° C
[4] = inhibitor 0,5 % (w/v), corneocyte count, positive control = 100 %, 44 h, 37° C
[5] = inhibitor concentration 0,01 % (w/v), 25 °C
[6] = inhibitor concentration 0,05 % (w/v), 25 °C
[7] = inhibitor concentration 0,001 % (w/v), 25 °C
[8] = inhibitor concentration 0,005 % (w/v), 25 °C
[9] = Homo sapiens, pH 8, inhibitor 0,1 % (w/v), corneocyte count, positive control = 100 %, 44 h, 37° C, read-out: Desquamation an Humanhaut ex vivo
[10] = Homo sapiens, pH 8, inhibitor 0,5 % (w/v), corneocyte count, positive control = 100 %, 44 h, 37° C, read-out: Desquamation an Humanhaut ex vivo
[11] = Homo sapiens, pH 8, inhibitor 1,0 % (w/v), corneocyte count, positive control = 100 %, 44 h, 37° C, read-out: Desquamation an Humanhaut ex vivo
[12] = inhibitor concentration 0,1 % (w/v), 25 °C
[13] = inhibitor concentration 0,5 % (w/v), 25 °C

| Molecule | Hemmwirkung (Minderung der Trypsin-Aktivität) (Trypsin; [5]) | Hemmwirkung (Minderung der Chymotrypsin-Aktivität) (Chymotrypsin; [5]) | Hemmwirkung (Minderung der Chymotrypsin-Aktivität) (Chymotrypsin; [7]) | Hemmwirkung (Minderung der Chymotrypsin-Aktivität) (Chymotrypsin; [12]) | Hemmung von Trypsin (Trypsin) | Hemmung von Chymotrypsin (Chymotrypsin) | Desquamation an Humanhaut ex vivo [1, 3] | Desquamation an Humanhaut ex vivo [1, 4] | Desquamation der Humanhaut (Korneozyten-Abschuppung) [1] | Hemmwirkung (Minderung der Trypsin-Aktivität) (Trypsin; [7]) | Hemmwirkung (Minderung der Chymotrypsin-Aktivität) (Chymotrypsin; [6]) | activity at 0.1 % [1, 9] | activity at 0.5 % [1, 10] | activity at 1 % [1, 11] | also measured |
| --- | --- | --- | --- | --- | --- | --- | --- | --- | --- | --- | --- | --- | --- | --- | --- |
| CC(C)CC(NC(=O)C1CCCN1C(=O)C(Cc1ccccc1)NC(=O)C1CCCN1C(=O)CNC(=O)OCc1ccccc1)C(=O)O (stereo not drawn) [N-CBZ-GPFPL, N-CBZ-Gly-Pro-Phe-Pro-Leu] (Cbz-GPFPL-OH; configuration not given here) | – | – | – | – | nicht beeinträchtigt | spezifische Hemmung | 93% | 51% | signifikant reduziert | – | – | – | – | – | Hemmwirkung (Minderung der Trypsin-Aktivität) (Trypsin; [2]): keine Hemmwirkung messbar; Hemmwirkung (Minderung der Trypsin-Aktivität) (Trypsin; inhibitor concentration 0,06 % (w/v), 25 °C): -"-; Hemmwirkung (Minderung der Trypsin-Aktivität) (Trypsin; inhibitor concentration 0,33 % (w/v), 25 °C): -"-; inhibition at 0.06 % (Chymotrypsin; 5 min, pH 7.8, inhibitor concentration 0,06 % (w/v), 25 °C, read-out: Hemmwirkung (Minderung der Chymotrypsin-Aktivität)): 7%; inhibition at 0.33 % (Chymotrypsin; 5 min, pH 7.8, inhibitor concentration 0,33 % (w/v), 25 °C, read-out: Hemmwirkung (Minderung der Chymotrypsin-Aktivität)): 27%; Hemmwirkung (Minderung der Chymotrypsin-Aktivität) (Chymotrypsin; [2]): 2%; Reduktion der Abschuppung (Desquamation der Haut) ([1]; inhibitor 0,5 %, result in words): um die Hälfte reduziert |
| NCCc1ccc(S(=O)(=O)F)cc1 [Pefabloc® SC, 4-(2-Aminoethyl)phenylsulfonylfluorid] | – | – | – | – | starke, konzentrationsabhängige Hemmung | starke, konzentrationsabhängige Hemmung | 34% | 11% | – | – | – | – | – | – | Hemmung von Trypsin (Trypsin; listed as Pefabloc®): effektiver Inhibitor; Hemmung von Chymotrypsin (Chymotrypsin; listed as Pefabloc®): effektiver Inhibitor; Abschuppung reduziert um ([1]; inhibitor 0,5 %, reduction versus positive control): ~90% |
| OB(O)c1ccccc1 [Phenylboronsäure] | Keine Hemmung meßbar | 9% | keine Hemmung meßbar | – | nur mäßig beeinträchtigt | deutliche, konzentrationsabhängige Hemmung | – | – | signifikant reduziert | Keine Hemmung meßbar | 45% | 60% | – | – | Hemmwirkung (Minderung der Trypsin-Aktivität) (Trypsin; [6]): 5%; Hemmwirkung (Minderung der Trypsin-Aktivität) (Trypsin; [8]): Keine Hemmung meßbar; activity at 0.05 % ([1]; Homo sapiens, pH 8, inhibitor 0,05 % (w/v), corneocyte count, positive control = 100 %, 44 h, 37° C, read-out: Desquamation an Humanhaut ex vivo): 89%; Reduktion der Abschuppung der Korneozyten ([1]; inhibitor 0,1 %, result in words): siginifikant reduzieren |
| Borsäure | Keine Hemmwirkung meßbar | keine Hemmwirkung meßbar | keine Hemmwirkung meßbar | 23% | schwache Hemmung; also recorded: nur schwach | schwache Hemmung; also recorded: nur schwach | 50% | – | signifikant reduziert | Keine Hemmwirkung meßbar | – | – | – | – | Hemmwirkung (Minderung der Trypsin-Aktivität) (Trypsin; [12]): 6%; Hemmwirkung (Minderung der Trypsin-Aktivität) (Trypsin; [13]): 23%; Desquamation an Humanhaut ex vivo ([1]; inhibitor 0,01 % (w/v), corneocyte count, positive control = 100 %, 44 h, 37° C): 86%; Desquamation an Humanhaut ex vivo ([1]; inhibitor 0,2 % (w/v), corneocyte count, positive control = 100 %, 44 h, 37° C): 47%; Reduktion der Abschuppung der Korneozyten ([1]; inhibitor 0,2 %, result in words): halbieren |

Further lines, with some results ahead:

| Hemmwirkung (Minderung der Trypsin-Aktivität) (Trypsin; [5]) | Hemmwirkung (Minderung der Chymotrypsin-Aktivität) (Chymotrypsin; [5]) | Hemmwirkung (Minderung der Chymotrypsin-Aktivität) (Chymotrypsin; [7]) | Hemmwirkung (Minderung der Chymotrypsin-Aktivität) (Chymotrypsin; [12]) | Molecule | Hemmung von Trypsin (Trypsin) | Hemmung von Chymotrypsin (Chymotrypsin) | Desquamation an Humanhaut ex vivo [1, 3] | Desquamation an Humanhaut ex vivo [1, 4] | Desquamation der Humanhaut (Korneozyten-Abschuppung) [1] | Hemmwirkung (Minderung der Trypsin-Aktivität) (Trypsin; [7]) | Hemmwirkung (Minderung der Chymotrypsin-Aktivität) (Chymotrypsin; [6]) | activity at 0.1 % [1, 9] | activity at 0.5 % [1, 10] | activity at 1 % [1, 11] | also measured |
| --- | --- | --- | --- | --- | --- | --- | --- | --- | --- | --- | --- | --- | --- | --- | --- |
| 61% | – | keine Hemmwirkung messbar | – | O=C(/C=C/c1ccc(O)c(O)c1)O[C@H](Cc1ccc(O)c(O)c1)C(=O)O [Rosmarinsäure] | starke, konzentrationsabhängige Hemmung | gering | – | – | konzentrationsabhängige Reduktion; also recorded: signifikant reduziert | – | – | 82.5% | 60% | 33.8% | Hemmwirkung (Minderung der Chymotrypsin-Aktivität) (Chymotrypsin; [8]): 2%; Hemmwirkung (Minderung der Chymotrypsin-Aktivität) (Chymotrypsin; inhibitor concentration 0,0075 % (w/v), 25 °C): 7%; Desquamation an Humanhaut ex vivo ([1]; inhibitor 1,0 % (w/v), corneocyte count, positive control = 100 %, 44 h, 37° C): 33,8% |
| 9% | keine Hemmwirkung messbar | – | - " - | NC[C@H]1CC[C@H](C(=O)O)CC1 [t-AMCHA, trans-4(Aminomethyl)-cyclohexancarbonsäure] | in Abhängigkeit von der Inhibitor-Konzentration beeinträchtigt | nicht beeinträchtigt | – | – | Desquamationsinhibitor mit konzentrationsabhängigem Profil; also recorded: signifikant reduziert | – | - " - | – | 51.3% | 44% | inhibition at 0.1 % (Trypsin; 5 min, inhibitor concentration 0,1 % (w/v), 25 °C, read-out: Hemmwirkung (Minderung der Trypsin-Aktivität)): 51%; inhibition at 0.05 % (Trypsin; 5 min, inhibitor concentration 0,05 % (w/v), 25 °C, read-out: Hemmwirkung (Minderung der Trypsin-Aktivität)): 36%; inhibition at 0.5 % (Trypsin; 5 min, inhibitor concentration 0,5 % (w/v), 25 °C, read-out: Hemmwirkung (Minderung der Trypsin-Aktivität)): 85%; inhibition at 1 % (Trypsin; 5 min, inhibitor concentration 1,0 % (w/v), 25 °C, read-out: Hemmwirkung (Minderung der Trypsin-Aktivität)): 93%; Hemmwirkung (Minderung der Chymotrypsin-Aktivität) (Chymotrypsin; [13]): - " -; Hemmwirkung (Minderung der Chymotrypsin-Aktivität) (Chymotrypsin; inhibitor concentration 1,0 % (w/v), 25 °C): - " -; activity at 2.5 % ([1]; Homo sapiens, pH 8, inhibitor 2,5 % (w/v), corneocyte count, positive control = 100 %, 44 h, 37° C, read-out: Desquamation an Humanhaut ex vivo): 37.1% |
